Pest or weed control data for 6 compounds are collected here from patent US6479435B1, “Diaryl ethers and processes for their preparation and herbicidal and desiccant compositions containing them” (ISK Americas Incorporated, priority 1997, dated 2002).

Holding throughout (assay): Pre-emerge greenhouse herbicide test, phytotoxicity rating
Holding throughout (format): in vivo

Experiment [1] deals with sicklepod (Cassia obtusifolia, CASOB). To be noted: Senna obtusifolia, pre-emergence, 336 h, 14 days after application, rating scale 0-100; for pest or weed control at 125 g/ha: Rate 125 g al/ha; for pest or weed control at 500 g/ha: Rate 500 g al/ha. The essentials: (§1)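 Seeds sown in sandy loam mix one day before track-sprayer application of compounds in acetone at 125–1000 g ai/ha (187 l/ha), then surface-watered to incorporate and bottom-watered. Visual rating 14 days after application on a 0–100 scale (0 = no damage, 100 = all plants dead).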

Experiment [2] relates to large crabgrass (Digitaria sanguinalis, DIGSA). To be noted: Digitaria sanguinalis, pre-emergence, 336 h, 14 days after application, rating scale 0-100; for pest or weed control at 125 g/ha: Rate 125 g al/ha; for pest or weed control at 500 g/ha: Rate 500 g al/ha. Put shortly: as §1
In experiment [3] the test system is barnyardgrass (Echinochloa crusgalli, ECHCG). To be noted: Echinochloa crus-galli, pre-emergence, 336 h, 14 days after application, rating scale 0-100; for pest or weed control at 125 g/ha: Rate 125 g al/ha; for pest or weed control at 500 g/ha: Rate 500 g al/ha. Put shortly: as §1

As a reminder, the pest or weed control is how far the test organism was held down. The low end stands for a weak effect, the high end for a strong effect. For the compound `Nn1c(C(F)(F)F)cc(=O)n(-c2cc(Oc3ccc(Br)cn3)c(Cl)cc2F)c1=O` [Compound 9-2, 1-Amino-3-[4-chloro-2-fluoro-5-(5-bromo-2-pyridyloxy)phenyl]-6-trifluoromethyl-1,2,3,4-tetrahydropyrimidine-2,4-dione], the values for the pest or weed control at 125 g/ha in experiment [1], in experiment [2] and in experiment [3] were 0%, 95% and 20%, respectively. The values for the pest or weed control at 500 g/ha in experiment [1], in experiment [2] and in experiment [3] were 50%, 100% and 95%, respectively.

With `Nn1c(C(F)(F)F)cc(=O)n(-c2cc(Oc3ccc(Cl)cn3)c(Cl)cc2F)c1=O` [Compound 9-3, 1-Amino-3-[4-chloro-2-fluoro-5-(5-chloro-2-pyridyloxy)phenyl]-6-trifluoromethyl-1,2,3,4-tetrahydropyrimidine-2,4-dione], the values for the pest or weed control at 125 g/ha in experiment [1], in experiment [2] and in experiment [3] were 0%, 95% and 30%, respectively. In addition, the pest or weed control at 500 g/ha in experiment [1] came to 70%; in experiment [2] it was 100%; in experiment [3], 99%.

In the case of `Nn1c(C(F)(F)F)cc(=O)n(-c2cc(Oc3cccc(Cl)n3)c(Cl)cc2F)c1=O` [Compound 9-5, 1-Amino-3-[4-chloro-2-fluoro-5-(6-chloro-2-pyridyloxy)phenyl]-6-trifluoromethyl-1,2,3,4-tetrahydropyrimidine-2,4-dione], the pest or weed control at 125 g/ha in experiment [1] is 10%; in experiment [2], 95%; in experiment [3] it was 90%. Moreover, the pest or weed control at 500 g/ha was found to be 50% in experiment [1], 100% in experiment [2] and 100% in experiment [3].

In the case of `Nn1c(C(F)(F)F)cc(=O)n(-c2cc(Oc3nc(F)c(F)cc3F)c(Cl)cc2F)c1=O` [Compound 9-6, 1-Amino-3-[4-chloro-2-fluoro-5-(3,5,6-trifluoro-2-pyridyloxy)phenyl]-6-trifluoromethyl-1,2,3,4-tetrahydropyrimidine-2,4-dione], the pest or weed control at 125 g/ha amounted to 90% in experiment [1], 100% in experiment [2] and 90% in experiment [3]. In addition, the pest or weed control at 500 g/ha in experiment [1], in experiment [2] and in experiment [3] was 100% in each case.

With `Nn1c(C(F)(F)F)cc(=O)n(-c2cc(Oc3ncccc3C(F)(F)F)c(Cl)cc2F)c1=O` [Compound 9-7, 1-Amino-3-[4-chloro-2-fluoro-5-(3-trifluoromethyl-2-pyridyloxy)phenyl]-6-trifluoromethyl-1,2,3,4-tetrahydropyrimidine-2,4-dione], the figures for the pest or weed control at 125 g/ha in experiment [1], in experiment [2] and in experiment [3] were 40%, 100% and 90%, respectively. For the same compound, the pest or weed control at 500 g/ha in experiment [1], in experiment [2] and in experiment [3] was 100% throughout.

In the case of `Nn1c(C(F)(F)F)cc(=O)n(-c2cc(Oc3cc(C(F)(F)F)ccn3)c(Cl)cc2F)c1=O` [Compound 9-8, 1-Amino-3-[4-chloro-2-fluoro-5-(4-trifluoromethyl-2-pyridyloxy)phenyl]-6-trifluoromethyl-1,2,3,4-tetrahydropyrimidine-2,4-dione], the pest or weed control at 125 g/ha in experiment [1] was found to be 80%; in experiment [2], 20%; in experiment [3], 30%. Further, the pest or weed control at 500 g/ha in experiment [1] stood at 90%; in experiment [2], 100%; in experiment [3], 99%.
